Source: EP4202440A1, “PROTEOMICS-BASED STRATIFICATION OF ACUTE MYELOID LEUKAEMIA” (Max-Planck-Gesellschaft zur Förderung der Wissenschaften …, priority 2021, dated 2023)

What was measured:
[1] = test system: AML cell lines; assay: Seahorse analysis: complex I dependency of respiration after rotenone, cell lines
[2] = test system: primary patient samples; assay: Seahorse analysis: complex I dependency of respiration after rotenone, primary patient samples
[3] = test system: AML cell lines; assay: Cell viability assay (MTT dye reduction), Mito-high versus Mito-low AML cell lines; type: cell-based, Human; conditions: 96 h incubation, Mito AML cell lines (n=9) vs non-Mito AML cell lines (n=10), Wilcoxon rank sum test, Figure 6D
From the text: Human AML cell lines including THP-1 (DSMZ no. ACC16; […]), OCI-AML2 (DSMZ No. ACC 99; FAB M4), OCI-AML3 (DSMZ No. ACC 582; FAB M4), Molm13 (DSMZ No. ACC 554; FAB […]), PL-21 (DSMZ No. ACC 536; FAB M3), HL-60 (DSMZ No. ACC 3; FAB M2), MV4-11 (DSMZ No. ACC 102; FAB M5), SIG-M5 (DSMZ No. ACC 468; FAB […]), ML2 (DSMZ No. ACC 15; FAB M4), NB4 (DSMZ No. ACC 207; FAB M3), KG1 (DSMZ No. ACC 14; FAB not indicated), KG-1a (DSMZ No. ACC 421; FAB not indicated), U-937 (DSMZ No. ACC 5, FAB not indicated), Kasumi-1 (DSMZ No. ACC 220, FAB M2), EOL-1 (DSMZ No. ACC 386, FAB not indicated), OCI-AML5 (DSMZ No. ACC 247, FAB M4), UT-7 (DSMZ No. ACC 137, FAB M7), SET-2 (DSMZ No. ACC 608, FAB no indicated), MonoMac6 (DSMZ No. ACC 124; FAB M5) and HEL (DSMZ No. ACC 11; FAB M6) were obtained from DSMZ (Deutsche Sammlung von Mikroorganismen und Zellkulturen GmbH). THP-1, OCI-AML2, OCI-AML3, Molm13, PL-21, HL-60, MV4-11, SIG-M5, ML2, NB4, KG1, KG-1a, U-937, EOL-1, SET-2, MonoMac6 and HEL were cultured in RPMI 1640 (ThermoFisher, Cat. No. 11875093), supplemented with 20% FBS, 4 mM L-glutamine, 100 IU/ml penicillin and […] streptomycin. Kasumi-1 and OCI-AML5 were cultured in Advanced RPMI (ThermoFisher, Cat. No. 12633012) supplemented with 5% FBS, 4 mM L-glutamine, 100 IU/ml penicillin and […] streptomycin. […] IC50 values were determined using the R package "drc" v3.0-1 (Ritz et al., 2015). […]

| Structure (SMILES) | Complex I dependency (percentage of basal oxygen consumption rate after inhibition with rotenone) [1] | Complex I dependency (percentage of basal oxygen consumption rate after inhibition with rotenone) [2] | half-maximum inhibitory concentration (IC50): in vitro sensitivity of Mito-high and -low cell lines [3] |
| --- | --- | --- | --- |
| C=C(C)[C@H]1Cc2c(ccc3c2O[C@@H]2COc4cc(OC)c(OC)cc4[C@@H]2C3=O)O1 [rotenone, Rotenone] | significantly stronger Complex I dependency | significantly stronger Complex I dependency | – |
| FC(F)(F)c1ccc(/C=C/c2nc(COc3ccc(CCCCn4ccnn4)cc3)co2)cc1 [mubritinib, Mubritinib] | – | – | significant hypersensitivity |
